Data as given in patent publication US5157049A, “Method of treating cancers sensitive to treatment with water soluble derivatives of taxol” (The United States of America as represented by the …, priority 1991, dated 1992).
“And” between values parts separate entries of the source, which are not always exact repeats. Equal entries are not always repeated. “Also recorded” adds a separate entry of the source. One block for each compound: values may come before it.

Tests used:
[1] = Aqueous solubility; details: water
[2] = test system: B16 Melanoma; assay: Antitumor activity in the B16 melanoma system (NCI screen); details: for % T/C (median lifetime) / cures (live animals day 60) / Survivors Day 4 / WT Diff, g (T - C): B16, Q01D × 09; for antitumor activity (in words): summary statements on in vivo screening, Table VI
Description: Another approach to make basic derivatives is based on the concept of taking an existing hydrolysable derivative and further modifying it to form a derivative that allows for stepwise hydrolysis.
Antitumor Activity in the B16 Melanoma System^a
^a Screening was carried out under the auspices of the National Cance
Institute. For detailed explanations of procedures and data, see
Instruction 14, Screening Data Summary Interpretation and Outline of
Current Screen, Drug Evaluation Branch, Developmental Therapeutics
Program, Division of Cancer Treatment, National Cancer Institute,
Bethesda, Maryland 20892.
^b Q01D × 09. Single dose for 9 days; given in milligrams per
kilogram body weight per injection.
^c Abbreviations: survivors day 4, live animals on the fourth day of
testing/total animal; wt diff, g (T - C), the difference in body weight i
grams between test and control animals; % T/C, the median lifetime of tes
animals divided by the median lifetime of control animals, times 100; for
the solid tumor system % T/C is 100 × (change in treated tumor wt 1
day 11 - day 0)/change in control tumor wt.) if the tumor grows or 100
× (change in treated tumor wt./initial treated tumor wt.) if the
tumor regresses; cures, number of live animals on the last day of
evaluation for the B16 melanoma system (day 60) or number of animals
without measurable tumor on day 11 for the MX1 mammary tumor system.

aqueous solubility ([1]; listed as 1, sodium salt): about 0.1%
SMILES: CC(=O)O[C@H]1C(=O)[C@@]2(C)[C@H]([C@H](OC(=O)c3ccccc3)[C@]3(O)C[C@H](OC(=O)[C@H](OC(=O)CCC(=O)O)[C@@H](NC(=O)c4ccccc4)c4ccccc4)C(C)=C1C3(C)C)[C@]1(OC(C)=O)CO[C@@H]1C[C@@H]2O [Example 12]
% T/C (median lifetime) ([2]; 1.25 mg/kg per injection): 111%
% T/C (median lifetime) ([2]; 2.5 mg/kg per injection): 159% and 125%
cures (live animals day 60) ([2]; 2.5 mg/kg per injection): 1
% T/C (median lifetime) ([2]; 5 mg/kg per injection): 166% and 131%
% T/C (median lifetime) ([2]; 10 mg/kg per injection): 183% and 160%
cures (live animals day 60) ([2]; 10 mg/kg per injection): 1
% T/C (median lifetime) ([2]; 20 mg/kg per injection): 201% and 160%
% T/C (median lifetime) ([2]; 40 mg/kg per injection): 218% and 177%
cures (live animals day 60) ([2]; 40 mg/kg per injection): 2
antitumor activity (in words) ([2]; listed as 1, sodium salt): improved antitumor activity as compared to the free acid

aqueous solubility (in words) [1]: not water soluble
SMILES: CC(=O)O[C@H]1C(=O)[C@@]2(C)[C@H]([C@H](OC(=O)c3ccccc3)[C@]3(O)C[C@H](OC(=O)[C@H](OC(=O)CCC(=O)O)[C@@H](NC(=O)c4ccccc4)c4ccccc4)C(C)=C1C3(C)C)[C@]1(OC(C)=O)CO[C@@H]1C[C@@H]2O [Example 1, 2' Succinyltaxol]
% T/C (median lifetime) ([2]; 2.5 mg/kg per injection): 119%
% T/C (median lifetime) ([2]; 5 mg/kg per injection): 154%
% T/C (median lifetime) ([2]; 10 mg/kg per injection): 159%
cures (live animals day 60) ([2]; 10 mg/kg per injection): 1
% T/C (median lifetime) ([2]; 20 mg/kg per injection): 154%
% T/C (median lifetime) ([2]; 40 mg/kg per injection): 185%
cures (live animals day 60) ([2]; 40 mg/kg per injection): 2

SMILES: CC(=O)O[C@H]1C(=O)[C@@]2(C)[C@H]([C@H](OC(=O)c3ccccc3)[C@]3(O)C[C@H](OC(=O)[C@H](OC(=O)CCCC(=O)NCCCN(C)C)[C@@H](NC(=O)c4ccccc4)c4ccccc4)C(C)=C1C3(C)C)[C@]1(OC(C)=O)CO[C@@H]1C[C@@H]2O [Example 25, Aminoamide Derivative of 2'-Glutaryltaxol]
antitumor activity (in words) [2]: extremely potent and active

SMILES: CC(=O)O[C@H]1C(=O)[C@@]2(C)[C@H]([C@H](OC(=O)c3ccccc3)[C@]3(O)C[C@H](OC(=O)[C@H](OC(=O)CCCC(=O)O)[C@@H](NC(=O)c4ccccc4)c4ccccc4)C(C)=C1C3(C)C)[C@]1(OC(C)=O)CO[C@@H]1C[C@@H]2O [Example 16]
% T/C (median lifetime) ([2]; 6.63 mg/kg per injection): 207%
Survivors Day 4 ([2]; 6.63 mg/kg per injection): 8/8
WT Diff, g (T - C) ([2]; 6.63 mg/kg per injection): 0.4 g
% T/C (median lifetime) ([2]; 13.25 mg/kg per injection): 291%
Survivors Day 4 ([2]; 13.25 mg/kg per injection): 8/8
WT Diff, g (T - C) ([2]; 13.25 mg/kg per injection): 0.4 g
% T/C (median lifetime) ([2]; 26.5 mg/kg per injection): 239%
Survivors Day 4 ([2]; 26.5 mg/kg per injection): 8/8
WT Diff, g (T - C) ([2]; 26.5 mg/kg per injection): 0.4 g
cures (live animals day 60) ([2]; 26.5 mg/kg per injection): 2
% T/C (median lifetime) ([2]; 53 mg/kg per injection): 300%
Survivors Day 4 ([2]; 53 mg/kg per injection): 8/8
WT Diff, g (T - C) ([2]; 53 mg/kg per injection): 0.4 g
cures (live animals day 60) ([2]; 53 mg/kg per injection): 1
antitumor activity (in words) [2]: very active and potent; also recorded: improved biological properties as compared to the corresponding succinates of Examples 12 and 8

SMILES: CC(=O)O[C@H]1C(=O)[C@@]2(C)[C@H]([C@H](OC(=O)c3ccccc3)[C@]3(O)C[C@H](OC(=O)[C@H](OC(=O)CCCC(=O)O)[C@@H](NC(=O)c4ccccc4)c4ccccc4)C(C)=C1C3(C)C)[C@]1(OC(C)=O)CO[C@@H]1C[C@@H]2O [Example 17]
% T/C (median lifetime) ([2]; 6.13 mg/kg per injection): 159%
Survivors Day 4 ([2]; 6.13 mg/kg per injection): 8/8
WT Diff, g (T - C) ([2]; 6.13 mg/kg per injection): 0.4 g
% T/C (median lifetime) ([2]; 12.25 mg/kg per injection): 192%
Survivors Day 4 ([2]; 12.25 mg/kg per injection): 8/8
WT Diff, g (T - C) ([2]; 12.25 mg/kg per injection): 0.6 g
% T/C (median lifetime) ([2]; 24.5 mg/kg per injection): 225%
Survivors Day 4 ([2]; 24.5 mg/kg per injection): 7/7
WT Diff, g (T - C) ([2]; 24.5 mg/kg per injection): 1.5 g
% T/C (median lifetime) ([2]; 49 mg/kg per injection): 339%
Survivors Day 4 ([2]; 49 mg/kg per injection): 7/7
WT Diff, g (T - C) ([2]; 49 mg/kg per injection): 0.4 g
antitumor activity (in words) [2]: very active and potent; also recorded: improved biological properties as compared to the corresponding succinates of Examples 12 and 8
